Measurements taken from ChEMBL document CHEMBL6092154, “Design, synthesis, and evaluation of a novel TRAIL-activated HDAC6 inhibitor for the treatment of pulmonary fibrosis” (Bioorg Med Chem, 2024).

Tests used:
RPMI-8226 = assay: Antiproliferative activity against human RPMI-8226 cells assessed as inhibition of cell growth incubated for 24 to 48 hrs by CCK8 assay; assay type: functional, cell-based
[1] = target: Histone deacetylase 1 (Homo sapiens) (UniProt Q13547); assay: Inhibition of HDAC1 (unknown origin) at 1 uM incubated for 30 mins by fluorometric analysis
Sequence of Histone deacetylase 1 (Homo sapiens) (Q13547 whole entry): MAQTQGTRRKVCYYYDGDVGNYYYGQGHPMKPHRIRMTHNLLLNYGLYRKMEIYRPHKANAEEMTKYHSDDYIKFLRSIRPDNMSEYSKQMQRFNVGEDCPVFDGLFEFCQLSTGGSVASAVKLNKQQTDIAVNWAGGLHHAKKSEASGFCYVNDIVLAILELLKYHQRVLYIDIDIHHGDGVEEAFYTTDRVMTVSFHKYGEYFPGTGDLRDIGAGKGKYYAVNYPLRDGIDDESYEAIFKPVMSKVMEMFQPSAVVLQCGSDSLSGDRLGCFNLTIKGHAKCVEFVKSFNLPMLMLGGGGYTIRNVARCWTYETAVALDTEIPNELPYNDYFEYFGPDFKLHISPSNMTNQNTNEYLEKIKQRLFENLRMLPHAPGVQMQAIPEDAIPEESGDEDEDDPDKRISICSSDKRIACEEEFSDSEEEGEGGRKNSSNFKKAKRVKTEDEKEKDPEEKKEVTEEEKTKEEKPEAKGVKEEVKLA

Fibroblast = assay: Antiproliferative activity against human primary fibroblasts assessed as inhibition of cell growth incubated for 24 to 48 hrs by CCK8 assay; assay type: functional, cell-based
Histone deacetylase 3 = Histone deacetylase 3 (Homo sapiens, UniProt O15379); assay: Inhibition of HDAC3 (unknown origin) at 1 uM incubated for 30 mins by fluorometric analysis
Sequence of Histone deacetylase 3 (O15379 whole entry): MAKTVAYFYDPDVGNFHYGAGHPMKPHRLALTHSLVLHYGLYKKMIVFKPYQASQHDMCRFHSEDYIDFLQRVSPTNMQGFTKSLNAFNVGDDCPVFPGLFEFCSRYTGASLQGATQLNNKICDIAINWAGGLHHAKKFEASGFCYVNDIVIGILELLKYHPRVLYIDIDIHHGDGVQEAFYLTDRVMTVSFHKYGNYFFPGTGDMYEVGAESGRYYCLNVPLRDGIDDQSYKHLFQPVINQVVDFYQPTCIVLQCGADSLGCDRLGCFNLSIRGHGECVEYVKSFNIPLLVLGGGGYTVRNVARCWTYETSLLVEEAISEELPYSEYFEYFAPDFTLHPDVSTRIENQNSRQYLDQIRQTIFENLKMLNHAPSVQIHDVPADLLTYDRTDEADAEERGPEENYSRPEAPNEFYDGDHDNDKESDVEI

Histone deacetylase 2 = Histone deacetylase 2 (Homo sapiens, UniProt Q92769); assay: Inhibition of HDAC2 (unknown origin) at 1 uM incubated for 30 mins by fluorometric analysis
Sequence of Histone deacetylase 2 (Q92769 whole entry): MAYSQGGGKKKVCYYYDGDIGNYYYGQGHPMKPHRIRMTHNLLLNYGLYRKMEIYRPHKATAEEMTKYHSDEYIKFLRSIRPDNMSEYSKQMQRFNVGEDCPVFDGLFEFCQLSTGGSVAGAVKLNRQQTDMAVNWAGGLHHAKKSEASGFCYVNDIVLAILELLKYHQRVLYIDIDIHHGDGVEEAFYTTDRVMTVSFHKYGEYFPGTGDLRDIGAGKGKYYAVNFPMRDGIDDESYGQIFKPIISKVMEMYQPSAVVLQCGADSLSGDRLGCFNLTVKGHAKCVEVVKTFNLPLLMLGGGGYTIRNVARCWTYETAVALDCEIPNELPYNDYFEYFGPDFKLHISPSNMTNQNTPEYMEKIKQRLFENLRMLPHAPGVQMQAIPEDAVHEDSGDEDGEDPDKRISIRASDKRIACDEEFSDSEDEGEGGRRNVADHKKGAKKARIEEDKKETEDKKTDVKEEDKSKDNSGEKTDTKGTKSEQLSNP

[2] = target: T1, Protein deacetylase HDAC6 (Homo sapiens, UniProt Q9UBN7); assay: Inhibition of HDAC6 (unknown origin) incubated for 30 mins by fluorometric analysis
T1 sequence (Q9UBN7 whole entry): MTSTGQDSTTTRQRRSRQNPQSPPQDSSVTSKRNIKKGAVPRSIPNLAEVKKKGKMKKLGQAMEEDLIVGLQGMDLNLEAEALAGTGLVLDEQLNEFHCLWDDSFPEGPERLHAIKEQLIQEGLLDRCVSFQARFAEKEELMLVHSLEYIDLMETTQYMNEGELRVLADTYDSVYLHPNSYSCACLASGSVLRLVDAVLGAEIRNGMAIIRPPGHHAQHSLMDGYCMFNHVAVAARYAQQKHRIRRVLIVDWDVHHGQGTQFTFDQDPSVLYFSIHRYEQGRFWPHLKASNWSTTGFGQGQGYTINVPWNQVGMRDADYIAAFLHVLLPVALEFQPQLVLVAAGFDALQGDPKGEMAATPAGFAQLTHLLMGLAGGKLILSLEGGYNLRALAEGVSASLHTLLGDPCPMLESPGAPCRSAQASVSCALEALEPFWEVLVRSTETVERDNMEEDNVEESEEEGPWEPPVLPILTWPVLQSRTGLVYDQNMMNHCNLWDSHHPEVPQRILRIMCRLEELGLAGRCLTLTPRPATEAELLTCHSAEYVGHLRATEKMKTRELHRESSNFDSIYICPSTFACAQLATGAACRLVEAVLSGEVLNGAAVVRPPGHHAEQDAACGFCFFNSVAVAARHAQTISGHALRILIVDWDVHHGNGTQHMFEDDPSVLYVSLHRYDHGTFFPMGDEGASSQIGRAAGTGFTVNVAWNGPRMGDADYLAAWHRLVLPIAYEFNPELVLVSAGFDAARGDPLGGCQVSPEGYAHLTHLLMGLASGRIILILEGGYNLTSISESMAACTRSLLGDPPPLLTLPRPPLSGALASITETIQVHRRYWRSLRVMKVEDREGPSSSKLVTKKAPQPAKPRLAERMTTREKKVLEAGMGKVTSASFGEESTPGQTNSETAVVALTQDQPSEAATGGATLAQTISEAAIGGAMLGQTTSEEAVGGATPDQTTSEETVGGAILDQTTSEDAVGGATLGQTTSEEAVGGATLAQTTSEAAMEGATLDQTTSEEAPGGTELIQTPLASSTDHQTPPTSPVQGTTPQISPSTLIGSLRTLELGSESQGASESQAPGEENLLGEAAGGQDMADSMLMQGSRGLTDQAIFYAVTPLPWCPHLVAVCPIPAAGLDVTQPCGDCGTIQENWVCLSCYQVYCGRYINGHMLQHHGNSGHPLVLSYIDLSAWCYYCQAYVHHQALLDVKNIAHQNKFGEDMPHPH

[3] = target: T2, Histone deacetylase 8 (Homo sapiens) (UniProt Q9BY41); assay: Inhibition of HDAC8 (unknown origin) at 1 uM incubated for 30 mins by fluorometric analysis
T2 sequence (whole entry): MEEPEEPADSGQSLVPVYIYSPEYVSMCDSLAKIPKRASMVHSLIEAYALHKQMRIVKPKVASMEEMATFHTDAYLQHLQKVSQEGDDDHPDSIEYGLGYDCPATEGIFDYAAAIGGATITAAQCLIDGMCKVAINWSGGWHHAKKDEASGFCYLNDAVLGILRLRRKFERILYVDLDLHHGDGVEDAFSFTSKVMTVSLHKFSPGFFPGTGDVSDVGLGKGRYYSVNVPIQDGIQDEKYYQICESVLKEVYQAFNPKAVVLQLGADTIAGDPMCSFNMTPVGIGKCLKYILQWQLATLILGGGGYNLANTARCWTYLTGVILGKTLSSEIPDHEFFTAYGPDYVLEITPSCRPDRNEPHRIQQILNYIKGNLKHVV

[4] = target: T3, Protein deacetylase HDAC6 (Homo sapiens) (UniProt Q9UBN7); assay: Inhibition of HDAC6 (unknown origin) at 1 uM incubated for 30 mins by fluorometric analysis
T3 sequence (whole entry): T1 sequence (Q9UBN7 whole entry)

NIH3T3 = assay: Antiproliferative activity against mouse NIH/3T3 cells assessed as inhibition of cell growth incubated for 24 to 48 hrs by CCK8 assay; assay type: functional, cell-based

Row | IC50 (RPMI-8226) [nM] | inhibition [1] [%] | inhibition (Histone deacetylase 3) [%] | inhibition (Histone deacetylase 2) [%] | IC50 [2] [nM] | inhibition [3] [%] | inhibition [4] [%] | Compound | IC50 (Fibroblast) [nM] | IC50 (NIH3T3) [nM]
1 | 49400 | 18.3 | 52.7 | 60.8 | 60.1 | 31 | 94.1 | O=C(NO)c1ccc(CN2C(=O)C3=C(CCN(Cc4cccc(C(F)(F)F)c4Cl)C3)N3CCN=C23)cc1 | 111000 | 6710
2 | 10700 | 32.4 | 51.2 | 60.5 | 48 | 69.8 | 94.7 | Cc1ccccc1CN1CCC2=C(C1)C(=O)N(Cc1ccc(C(=O)NO)cc1)C1=NCCN12 | 59200 | 5900
3 | 1860 | 36.4 | 56.6 | 63.9 | 31.5 | 76 | 93.6 | O=C(NO)c1ccc(CN2C(=O)C3=C(CCN(Cc4cccc(Br)c4)C3)N3CCN=C23)cc1 | 47400 | 100
4 | 620 | 68.3 | 51.9 | 56.8 | 65.4 | 72.8 | 97.2 | O=C(NO)c1ccc(CN2C(=O)C3=C(CCN(Cc4ccccc4)C3)N3CCN=C23)cc1 | 30600 | 1000
5 | 1580 | 47.9 | 56.4 | 61.9 | 64.4 | 75 | 97.1 | O=C(NO)c1ccc(CN2C(=O)C3=C(CCN(Cc4cccc(F)c4)C3)N3CCN=C23)cc1 | 26700 | 6510
6 | 1080 | 27.2 | 43.8 | 62.7 | 36.8 | 48.2 | 96.2 | O=C(NO)c1ccc(CN2C(=O)C3=C(CCN(Cc4ccc(Cl)c(C(F)(F)F)c4)C3)N3CCN=C23)cc1 | 45300 | 9880
7 | 1060 | 44.7 | 50.6 | 61.7 | 54.8 | 74.9 | 93.8 | Cc1cccc(CN2CCC3=C(C2)C(=O)N(Cc2ccc(C(=O)NO)cc2)C2=NCCN23)c1 | 50700 | 90
8 | 2880 | 9.3 | 36.2 | 46.3 | 137 | 66.4 | 95.1 | O=C(NO)c1ccc(CN2C(=O)C3=C(CCN(Cc4cccnc4)C3)N3CCN=C23)cc1 | 4580 | 8400
9 | 13300 | 31.8 | 53.1 | 58.4 | 50.9 | 63.6 | 91.3 | Cc1ccc(CN2CCC3=C(C2)C(=O)N(Cc2ccc(C(=O)NO)cc2)C2=NCCN23)cc1 | 136000 | 1630
10 | 100 | 59.3 | 52.3 | 57.6 | 104 | 72.2 | 95.4 | COc1cccc(CN2CCC3=C(C2)C(=O)N(Cc2ccc(C(=O)NO)cc2)C2=NCCN23)c1 | 55200 | 11400
11 | 850 | – | – | – | – | – | 98.5 | O=C(CCCCCCNC(=O)c1cnc(N(c2ccccc2)c2ccccc2)nc1)NO [RICOLINOSTAT] | 35100 | 3530
